Reference: US10017497B2, “Pyrrolidine GPR40 modulators for the treatment of diseases such as diabetes” (BRISTOL-MYERS SQUIBB COMPANY, priority 2014, dated 2018)

What was measured:
[1] = target: T1, hGPR40 (Homo sapiens, UniProt O14842); assay: GPR40 IP-One HTRF assay in HEK293/GPR40 inducible cell lines (hGPR40 IP1 EC50); format: cell-based; parameters: expressed in transfected cells; settings: HEK293 cells with tetracycline-inducible human GPR40, IP-One HTRF
Procedure: GPR40 IP-One HTRF Assays in HEK293/GPR40 Inducible Cell Lines
Human, mouse and rat GPR40-mediated intracellular IP-One HTRF assays were established using human embryonic kidney HEK293 cells stably transfected with a tetracycline-inducible human, mouse or rat GPR40 receptor. Cells were routinely cultured in growth medium containing DMEM (Gibco Cat. #12430-047), 10% qualified FBS (Sigma, Cat. #F2442), 200 μg/mL hygromycin (Invitrogen, Cat. #16087-010) and 1.5 μg/mL blasticidin (Invitrogen, Cat. #R210-01). About 12-15 million cells were passed into a T175 tissue culture flask (BD Falcon 353112) with growth medium and incubated for 16-18 hours (overnight) at 37° C. with 5% CO2. The next day, assay medium was exchanged with growth medium containing 1000 ng/mL of tetracycline (Fluka Analytical, Cat. #87128) to induce GPR40 expression for 18-24 hours at 37° C. incubator with 5% CO2. After induction, the cells were washed with PBS (Gibco, Cat. #14190-036) and detached with Cell Stripper (Cellgro, Cat. #25-056-CL). 10-20 mL growth medium were added to the flask and cells were collected in 50 mL tubes (Falcon, Cat. #352098) and spun at 1000 RPM for 5 minutes. Culture medium was aspirated and the cells were resuspended in 10 mL of 1× IP-One Stimulation Buffer from the Cisbio IP-One kit (Cisbio, Cat. #62IPAPEJ). The cells were diluted to 1.4×10^6 cells/mL in Stimulation Buffer.
Test compounds were 3-fold, 11-point serially diluted in DMSO in a REMP assay plate (Matrix Cat. #4307) by Biocel (Agilent). The compounds were transferred into an Echo plate (Labcyte, Cat. #LP-0200) and 20 nL of diluted compounds were transferred to an assay plate (proxi-plate from Perkin Elmer, Cat. #6008289) by Echo acoustic nano dispenser (Labcyte, model ECHO550). 14 μL of the diluted cells were then added to the assay plate by Thermo (SN 836 330) Combi Drop and incubated at room temperature for 45 minutes. Then 3 μL of IP1 coupled to dye D2 from the Cisbio IP-One kit were added to the assay plate followed by 3 μL of Lumi4-Tb cryptate K from the kit. The plate was further incubated at room for 1 hour before reading on the Envision (Perkin Elmer Mode12101) with an HTRF protocol. Activation data for the test compound over a range of concentrations was plotted as percentage activation of the test compound (100%=maximum response). After correcting for background [(sample read-mean of low control)/(mean of high control-mean of low control)](low control is DMSO without any compound), EC50 values were determined. […] The maximal Y value observed (% Ymax) was calculated relative to a BMS standard reference compound at a final concentration of 0.625 μM.

[2] = target: T1, hGPR40; assay: FDSS-based intracellular calcium assay (hGPR40 EC50); format: cell-based; parameters: 3xFLAG; expressed in transfected cells; settings: cells expressing GPR40, intracellular Ca2+ response, FDSS reader
Procedure: FDSS-Based Intracellular Calcium Assay
Cell lines expressing GPR40 are generated using the pDEST-3×FLAG gene expression system and are cultured in culture medium comprising the following components: F12 (Gibco #11765), 10% lipid deprived fetal bovine serum, 250 μg/mL zeocin and 500 μg/mL G418. To conduct the fluorescent imaging plate reader (FLIPR)-based calcium flux assay to measure intracellular Ca^2+ response, cells expressing GPR40 are plated on 384 well plates (BD Biocoat #356697) at a density of 20,000 cells/20 μL medium per well in phenol red and serum-free DMEM (Gibco #21063-029) and incubated overnight. Using BD kit #s 80500-310 or -301, the cells are incubated with 20 μL per well of Hank's buffered salt solution with 1.7 mM probenecid and Fluo-3 at 37° C. for 30 min. Compounds are dissolved in DMSO and diluted to desired concentrations with assay buffer and added to the cells as 3× solution (20 μL per well). Run fluorescence/luminescence reader FDSS (Hamamatsu) to read intracellular Ca^2+ response.

T1 sequence (O14842 whole entry): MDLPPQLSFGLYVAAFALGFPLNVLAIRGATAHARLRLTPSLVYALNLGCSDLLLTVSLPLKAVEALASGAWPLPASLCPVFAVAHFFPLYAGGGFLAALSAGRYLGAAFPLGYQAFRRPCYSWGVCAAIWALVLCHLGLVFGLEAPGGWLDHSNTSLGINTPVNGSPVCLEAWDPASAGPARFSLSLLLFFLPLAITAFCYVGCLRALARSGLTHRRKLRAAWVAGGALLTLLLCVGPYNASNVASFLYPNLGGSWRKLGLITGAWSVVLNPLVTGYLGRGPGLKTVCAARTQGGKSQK

Structure (SMILES) | EC50 [1] [nM] | EC50 [2] [nM]
COc1cc(N2CC[C@@H](Oc3cnc(N4C[C@H](OC)[C@@H](C)[C@@H]4CC(=O)O)cn3)[C@H](C)C2)c(Cl)cn1 [Example 1, 2-((2S,3S,4R)-1-(5-((3R,4R)-1-(5-Chloro-2-methoxypyridin-4-yl)-3-methylpiperidin-4-yloxy)pyrazin-2-yl)-4-methoxy-3-methylpyrrolidin-2-yl)acetic acid] | 14 | 72
COCCCO[C@H]1CN(c2cnc(O[C@@H]3CCN(c4cc(OC)ncc4Cl)C[C@H]3C)cn2)[C@@H](CC(=O)O)[C@@H]1C [Example 2, 2-((2S,3S,4R)-1-(5-((3R,4R)-1-(5-Chloro-2-methoxypyridin-4-yl)-3-methylpiperidin-4-yloxy)pyrazin-2-yl)-4-(3-methoxypropoxy)-3-methylpyrrolidin-2-yl)acetic acid] | 4 | 43
CCOc1ccc(F)c(N2CC[C@@H](Oc3cnc(N4C[C@H](OC)[C@@H](C)[C@@H]4CC(=O)O)cn3)[C@H](C)C2)c1 [Example 3, 2-((2S,3S,4R)-1-(5-((3R,4R)-1-(5-Ethoxy-2-fluorophenyl)-3-methylpiperidin-4-yloxy)pyrazin-2-yl)-4-methoxy-3-methylpyrrolidin-2-yl)acetic acid] | 21 | 42
CCOc1ccc(F)c(N2CC[C@@H](Oc3cnc(N4C[C@H](OCCCOC)[C@@H](C)[C@@H]4CC(=O)O)cn3)[C@H](C)C2)c1 [Example 4, 2-((2S,3S,4R)-1-(5-((3R,4R)-1-(5-Ethoxy-2-fluorophenyl)-3-methylpiperidin-4-yloxy)pyrazin-2-yl)-4-(3-methoxypropoxy)-3-methylpyrrolidin-2-yl)acetic acid] | – | 45
CCOc1ccc(F)c(N2CC[C@@H](Oc3cnc(N4CC(OCCCOC)C(C)C4CC(=O)O)cn3)[C@H](C)C2)c1 (stereo partly drawn) [Example 5, 2-(1-(5-(((3R,4R)-1-(5-Ethoxy-2-fluorophenyl)-3-methylpiperidin-4-yl)oxy)pyrazin-2-yl)-4-(3-methoxypropoxy)-3-methylpyrrolidin-2-yl)acetic acid] | – | 837
COc1cc(N2CC[C@@H](Oc3cnc(N4C[C@H](OC)C[C@@H]4CC(=O)O)cn3)[C@H](C)C2)c(Cl)cn1 [Example 6, 2-((2R,4R)-1-(5-((3R,4R)-1-(5-Chloro-2-methoxypyridin-4-yl)-3-methylpiperidin-4-yloxy)pyrazin-2-yl)-4-methoxypyrrolidin-2-yl)acetic acid] | 44 | 150
COc1cc(N2CC[C@@H](Oc3cnc(N4C[C@H](OC)C[C@H]4CC(=O)O)cn3)[C@H](C)C2)c(Cl)cn1 [Example 7, 2-((2S,4R)-1-(5-((3R,4R)-1-(5-Chloro-2-methoxypyridin-4-yl)-3-methylpiperidin-4-yloxy)pyrazin-2-yl)-4-methoxypyrrolidin-2-yl)acetic acid] | – | 3230
COc1cc(N2CC[C@@H](Oc3cnc(N4C[C@H](C(F)(F)F)C[C@H]4CC(=O)O)cn3)[C@H](C)C2)c(Cl)cn1 [Example 8, 2-((2S,4R)-1-(5-((3R,4R)-1-(5-Chloro-2-methoxypyridin-4-yl)-3-methylpiperidin-4-yloxy)pyrazin-2-yl)-4-(trifluoromethyl)pyrrolidin-2-yl)acetic acid] | – | 955
COc1cc(N2CC[C@@H](Oc3cnc(N4C[C@H](C(F)(F)F)C[C@@H]4CC(=O)O)cn3)[C@H](C)C2)c(Cl)cn1 [Example 9, 2-((2R,4R)-1-(5-((3R,4R)-1-(5-Chloro-2-methoxypyridin-4-yl)-3-methylpiperidin-4-yloxy)pyrazin-2-yl)-4-(trifluoromethyl)pyrrolidin-2-yl)acetic acid] | – | 84
